According to patent US7371207B2 (Wyeth, priority 2002, dated 2008):

Tested on: gene expression in the kidney
Test: GeneChip microarray survey of E2 regulated gene expression, kidney
Conditions: for E2: Study 2 ERbKO; for Study 1 E2 Expr (/evansm/Kidney, mouse/Study 1, U74v2/KO E2 kidney (81038)) / E2 Expr (/evansm/Kidney, mouse/Study 2, U74v2/ER bKO kidney E2 (82412)): ERbKO
Procedure: FIG. 1 depicts a pattern analysis generated by a GeneChip microarray analysis. […] Two hours following the final dose, the mice were euthanized and 13 tissues removed for RNA preparation. Two independent studies were performed, with total RNA pooled from two groups of three animals for each condition. Gene expression was quantified by GeneChip microarrays using murine U74 sub A arrays. Data were analyzed for patterns indicating either ERα or ERβ dependent regulation as shown. […] The number of genes in each tissue that matched the theoretical induction (↑) or repression (↓) patterns for ERα or ERβ are indicated.
FIGS. 2A-2C show a series of bar graphs showing gene expression levels of known genes regulated in the kidney in an ERα pattern. […] Expression was measured in two independent sets of animals, with two groups of animals for each treatment in each study. A gene name abbreviation is shown above each graph, with the corresponding Unigene designation shown below.
One week later, the animals were ovariectomized.
GeneChip—Total RNA was prepared separately from each individual organ by using Trizol (Invitrogen) followed by subsequent repurification on Rneasy columns (Qiagen). In general, two pools of RNA were created using equal amounts of RNA from three mice. For small organs such as pituitary, an equal amount of RNA from six animals was combined.
Target Preparation and Array Hybridization—Total RNA was used to generate biotin labeled cRNA target as described (8) which was hybridized to the murine MG_U74Av2 probe arrays (Affymetrix, Santa Clara, Calif.) for 16 h at 45° C. Eleven biotin-labeled cRNAs at defined concentration were spiked into each hybridization and used to convert average difference values to frequencies expressed as parts per million.
The resulting data set was queried for genes whose regulation was dependent on ERα or ERβ.

[1] = 1st line of INDUCTIONS (by order 100060_l_at, kallikrein 8)
[2] = 2nd line of INDUCTIONS (by order 100061_f_at, kallikrein 8)
[3] = 3rd line of INDUCTIONS (by order 95775_f_at, kallikrein 1)
[4] = 4th line of INDUCTIONS (by order 104495_f_at, kallikrein 5)
[5] = 5th line of INDUCTIONS (by order 94716_f_at, kallikrein 9)
[6] = 6th line of INDUCTIONS (by order 100422_f_at, signal transducer and activator of transcription 5A)
[7] = 7th line of INDUCTIONS (by order 100423_f_at, signal transducer and activator of transcription 5A)
[8] = 8th line of INDUCTIONS (by order 101289_f_at, M17979)

## C[C@]12CC[C@@H]3c4ccc(O)cc4CC[C@H]3[C@@H]1CC[C@@H]2O [E2, 17β-estradiol]
[1]
  E2: 37
  Study 1 E2 Expr (/evansm/Kidney, mouse/Study 1, U74v2/KO E2 kidney (81038)): 37
  E2 Expr (/evansm/Kidney, mouse/Study 2, U74v2/ER bKO kidney E2 (82412)): 44
  E2 Expr (/evansm/Kidney, mouse/Study 2, U74v2/WT kidney E2 (82408)): 40
  E2 Expr (/evansm/Kidney, mouse/Study 2, U74v2/WT kidney E2 (82409)): 31
[2]
  E2: 297
  Study 1 E2 Expr (/evansm/Kidney, mouse/Study 1, U74v2/KO E2 kidney (81038)): 370
  E2 Expr (/evansm/Kidney, mouse/Study 2, U74v2/ER bKO kidney E2 (82412)): 359
  E2 Expr (/evansm/Kidney, mouse/Study 2, U74v2/WT kidney E2 (82408)): 338
  E2 Expr (/evansm/Kidney, mouse/Study 2, U74v2/WT kidney E2 (82409)): 201
[3]
  E2: 291
  Study 1 E2 Expr (/evansm/Kidney, mouse/Study 1, U74v2/KO E2 kidney (81038)): 333
  E2 Expr (/evansm/Kidney, mouse/Study 2, U74v2/ER bKO kidney E2 (82412)): 361
  E2 Expr (/evansm/Kidney, mouse/Study 2, U74v2/WT kidney E2 (82408)): 345
  E2 Expr (/evansm/Kidney, mouse/Study 2, U74v2/WT kidney E2 (82409)): 234
[4]
  E2: 130
  Study 1 E2 Expr (/evansm/Kidney, mouse/Study 1, U74v2/KO E2 kidney (81038)): 125
  E2 Expr (/evansm/Kidney, mouse/Study 2, U74v2/ER bKO kidney E2 (82412)): 163
  E2 Expr (/evansm/Kidney, mouse/Study 2, U74v2/WT kidney E2 (82408)): 145
  E2 Expr (/evansm/Kidney, mouse/Study 2, U74v2/WT kidney E2 (82409)): 89
[5]
  E2: 302
  Study 1 E2 Expr (/evansm/Kidney, mouse/Study 1, U74v2/KO E2 kidney (81038)): 372
  E2 Expr (/evansm/Kidney, mouse/Study 2, U74v2/ER bKO kidney E2 (82412)): 369
  E2 Expr (/evansm/Kidney, mouse/Study 2, U74v2/WT kidney E2 (82408)): 329
  E2 Expr (/evansm/Kidney, mouse/Study 2, U74v2/WT kidney E2 (82409)): 230
[6]
  E2: 92
  Study 1 E2 Expr (/evansm/Kidney, mouse/Study 1, U74v2/KO E2 kidney (81038)): 70
  E2 Expr (/evansm/Kidney, mouse/Study 2, U74v2/ER bKO kidney E2 (82412)): 104
  E2 Expr (/evansm/Kidney, mouse/Study 2, U74v2/WT kidney E2 (82408)): 104
  E2 Expr (/evansm/Kidney, mouse/Study 2, U74v2/WT kidney E2 (82409)): 73
[7]
  E2: 72
  Study 1 E2 Expr (/evansm/Kidney, mouse/Study 1, U74v2/KO E2 kidney (81038)): 61
  E2 Expr (/evansm/Kidney, mouse/Study 2, U74v2/ER bKO kidney E2 (82412)): 58
  E2 Expr (/evansm/Kidney, mouse/Study 2, U74v2/WT kidney E2 (82408)): 80
  E2 Expr (/evansm/Kidney, mouse/Study 2, U74v2/WT kidney E2 (82409)): 44
[8]
  E2: 236
  Study 1 E2 Expr (/evansm/Kidney, mouse/Study 1, U74v2/KO E2 kidney (81038)): 282
  E2 Expr (/evansm/Kidney, mouse/Study 2, U74v2/ER bKO kidney E2 (82412)): 295
  E2 Expr (/evansm/Kidney, mouse/Study 2, U74v2/WT kidney E2 (82408)): 264
  E2 Expr (/evansm/Kidney, mouse/Study 2, U74v2/WT kidney E2 (82409)): 178
92232_at, U88328, cytokine inducible SH-2 containing protein 3
  E2 Expr (/evansm/Kidney, mouse/Study 1, U74v2/WT E2 kidney (81036)): 45
93104_at, Z16410, B-cell translocation gene 1, anti-proliferative
  E2 Expr (/evansm/Kidney, mouse/Study 1, U74v2/WT E2 kidney (81036)): 14
93374_at, AI836349, junctophilin 3
  E2 Expr (/evansm/Kidney, mouse/Study 1, U74v2/WT E2 kidney (81036)): 65
94694_at, M69196, proprotein convertase subtillsin/kexin type 1
  E2 Expr (/evansm/Kidney, mouse/Study 1, U74v2/WT E2 kidney (81036)): 27
94716_f_at, M17962, kallikrein 9
  E2 Expr (/evansm/Kidney, mouse/Study 1, U74v2/WT E2 kidney (81036)): 380
94773_at, X01801, nerve growth factor, alpha
  E2 Expr (/evansm/Kidney, mouse/Study 1, U74v2/WT E2 kidney (81036)): 53
95559_at, AI838836, RIKEN cDNA 6330403K07 gene
  E2 Expr (/evansm/Kidney, mouse/Study 1, U74v2/WT E2 kidney (81036)): 74
95775_f_at, V00829, kallikrein 1
  E2 Expr (/evansm/Kidney, mouse/Study 1, U74v2/WT E2 kidney (81036)): 370
95905_at, AI118078, Mm.24361
  E2 Expr (/evansm/Kidney, mouse/Study 1, U74v2/WT E2 kidney (81036)): 83
96215_f_at, AI53421, Mm.218360
  E2 Expr (/evansm/Kidney, mouse/Study 1, U74v2/WT E2 kidney (81036)): 206
96591_at, U24703, reelin
  E2 Expr (/evansm/Kidney, mouse/Study 1, U74v2/WT E2 kidney (81036)): 43
96629_at, X04097, similar to TESTOSTERONE-REGULATED RP2 PROTEIN
  E2 Expr (/evansm/Kidney, mouse/Study 1, U74v2/WT E2 kidney (81036)): 55
97353_at, AI837497, AF9Q34 NGAP-like protein
  E2 Expr (/evansm/Kidney, mouse/Study 1, U74v2/WT E2 kidney (81036)): 29
97519_at, X13986, secreted phosphoprotein 1
  E2 Expr (/evansm/Kidney, mouse/Study 1, U74v2/WT E2 kidney (81036)): 178
97520_s_at, X83569, neuroatin
  E2 Expr (/evansm/Kidney, mouse/Study 1, U74v2/WT E2 kidney (81036)): 157
98055_at, AW121500, bladder cancer associated protein homolog (human)
  E2 Expr (/evansm/Kidney, mouse/Study 1, U74v2/WT E2 kidney (81036)): 14
98437_at, U83720, caspase 3, apoptosis related cysteine protease
  E2 Expr (/evansm/Kidney, mouse/Study 1, U74v2/WT E2 kidney (81036)): 39
98628_f_at, AF003695, hypoxia inducible factor 1, alpha subunit
  E2 Expr (/evansm/Kidney, mouse/Study 1, U74v2/WT E2 kidney (81036)): 288
99057_at, M12379, thymus cell antigen 1, theta
  E2 Expr (/evansm/Kidney, mouse/Study 1, U74v2/WT E2 kidney (81036)): 57
99127_at, X61506, spinocerebellar ataxia 10 homolog (human)
  E2 Expr (/evansm/Kidney, mouse/Study 1, U74v2/WT E2 kidney (81036)): 66
99552_at, U79550, slug, chicken homolog
  E2 Expr (/evansm/Kidney, mouse/Study 1, U74v2/WT E2 kidney (81036)): 19
99632_at, U83902, MAD2 (mitotic arrest deficient, homolog)-like 1 (yeast)
  E2 Expr (/evansm/Kidney, mouse/Study 1, U74v2/WT E2 kidney (81036)): 27
100060_l_at, M13500, kallikrein 8
  E2 Expr (/evansm/Kidney, mouse/Study 1, U74v2/WT E2 kidney (81036)): 39
100061_f_at, M13500, kallikrein 8
  E2 Expr (/evansm/Kidney, mouse/Study 1, U74v2/WT E2 kidney (81036)): 341
100407_at, L38580, galanin
  E2 Expr (/evansm/Kidney, mouse/Study 1, U74v2/WT E2 kidney (81036)): 98
100422_f_at, AJ237939, signal transducer and activator of transcription 5A
  E2 Expr (/evansm/Kidney, mouse/Study 1, U74v2/WT E2 kidney (81036)): 151
100423_f_at, AJ237939, signal transducer and activator of transcription 5A
  E2 Expr (/evansm/Kidney, mouse/Study 1, U74v2/WT E2 kidney (81036)): 96
100440_f_at, U76758, ankyrin 1, erythroid
  E2 Expr (/evansm/Kidney, mouse/Study 1, U74v2/WT E2 kidney (81036)): 119
100539_at, AI841279, ?HBACH Cytosolic acyl coenzyme A thioester hydrolase
  E2 Expr (/evansm/Kidney, mouse/Study 1, U74v2/WT E2 kidney (81036)): 16
100681_f_at, V00829
  E2 Expr (/evansm/Kidney, mouse/Study 1, U74v2/WT E2 kidney (81036)): 123
100719_f_at, J03677, kallikrein 16
  E2 Expr (/evansm/Kidney, mouse/Study 1, U74v2/WT E2 kidney (81036)): 119
101289_f_at, M17979
  E2 Expr (/evansm/Kidney, mouse/Study 1, U74v2/WT E2 kidney (81036)): 305
101737_at, U12932, follicle stimulating hormone beta
  E2 Expr (/evansm/Kidney, mouse/Study 1, U74v2/WT E2 kidney (81036)): 19
101738_at, U25145, tutetnizing hormone beta
  E2 Expr (/evansm/Kidney, mouse/Study 1, U74v2/WT E2 kidney (81036)): 578
101870_at, V00793
  E2 Expr (/evansm/Kidney, mouse/Study 1, U74v2/WT E2 kidney (81036)): 21
